Measured values as given in patent publication US10004791B2, “Peptide vaccines against PCSK9” (AFFIRIS AG, priority 2014, dated 2018).

Key:
human PCSK9 protein = test: Protein ELISA: titers of vaccine-induced PCSK9-specific antibodies in plasma of immunized mice; type: in vivo, BALB/c mice; conditions: for titers against huPCSK9 (ODmax/2): mean titer, n=5 BALB/c mice/group, s.c. 4 x 15 μg net peptide coupled to KLH, Alhydrogel, plasma 2 weeks after final injection, titer = serum dilution at 50% ODmax; for capacity to elicit a humoral immune response targeting PCSK9: result in words
Experimental: (§1) The peptides were conjugated via the heterobifunctional linker GMBS (4-Maleimidobutyric acid N-hydroxysuccinimide ester) to KLH (Keyhole Limpet Hemocyanin).
5 BALB/c mice were subcutaneously immunized. Mice had access to food and water ad libitum and were kept under a 12 h light/dark cycle. The age of mice at the beginning of experiments was 8 to 10 weeks.
(§2) Mice were injected four times in 2 week intervals with 15 μg of net peptide coupled to KLH and adsorbed to Alhydrogel as adjuvant in a volume of 1 ml in total.
(§3) Blood was taken approximately 2 weeks after the final injection.
To determine the immunogenicity of the vaccines, and thus to identify the amount of PCSK9 specific antibodies in the plasma of immunized animals, ELISA immunoassay was performed. The ELISA immunoassay generates a signal which can be easily quantified and represents a quantitative measure of the amount of vaccine induced PCSK9-specific antibodies. Thus the titers as measured by ELISA correlate directly with the amount (μg/ml) of target specific antibodies in the plasma sample of treated animals. All plasma samples were collected two weeks after the final immunization and equality treated. In order to have a direct comparison, the quantitative evaluation by the PCSK9 Protein ELISA immunoassay of the vaccine induced PCSK9-specific antibodies and the comparison to their relative controls (originals sequence and negative control) was performed for all samples simultaneously. For this purpose, ELISA plates were coated with recombinantly expressed human PCSK9 protein. Unspecific binding was blocked by incubation with blocking buffer (1% BSA in PBS). Appropriate serum dilutions (with a starting dilution of 1:100) were added to the wells, serially diluted 1:2 fold (12 dilution steps) and incubated for approximately 1 hour. Bound antibodies were detected by incubation with anti-mouse IgG antibody, ABTS was added as substrate and the OD at 405 nm was measured. As negative control sera from the control group injected with an irrelevant peptide were analyzed. The titers were defined as the dilution of the serum where 50% of the ODmax in the assay is reached.

[1] = Total cholesterol assay in plasma of immunized mice (15 μg net peptide, four injections); type: in vivo, BALB/c mice; conditions: for TC in % (FIG. 2A) / TC in % (FIG. 2B): mean total cholesterol, single AA exchange; for TC in % (FIG. 2A): n=3 mice/group, negative control group (irrelevant peptide) set as 100%; for TC in % (FIG. 2B) / TC in % multiple AA exchanges (FIG. 2C): n=5 mice/group, negative control group set as 100%; for TC in % multiple AA exchanges (FIG. 2C): total cholesterol
Experimental: as §1
[…] Mice had access to food and water ad libitum and were kept under a 12 h light/dark cycle. The age of mice at the beginning of experiments was 8 to 10 weeks.
as §2, §3
(§4) All plasma samples were collected two weeks after the final immunization and equality treated. Total cholesterol (TC) measurements were performed simultaneously for all samples and side by side compared to their related controls (originals sequence and negative control). The simultaneous quantitative measurement of the plasma TC levels in mg/dL was measured by LabAssay™ Cholesterol Kit (Wako). In details, upon incubation with the chromogen reagent containing cholesterol esterase, the cholesterol esters in the samples were decomposed into free cholesterol and fatty acids. Subsequently the free cholesterol was oxidized by the cholesterol oxidase, leading to the simultaneously release of hydrogen peroxide. The produced hydrogen peroxide let DAOS and 4-Aminoantipyrin oxidize and condensate quantitatively by peroxidase (HRP), which produced blue pigment. Optical density was measured at 600 nm and quantification of the TC was calculated according to a standard curve.

huPCSK9 = test: Inhibition of furin cleavage of huPCSK9 by plasma from vaccinated mice (SDS-PAGE / Western blot); type: biochemical, human; conditions: 4 μl mouse plasma, 250 ng biotinylated huPCSK9, 2 U furin overnight RT; FIG. 3; result in words
Experimental: The furin cleavage reaction was performed with 2 Units Furin (˜110 ng) (New England Biolabs) in PCSK9 buffer containing 100 mM Hepes Buffer pH 7.5, 5% Triton-X and 1 mM CaCl. In details, 4 μl mouse plasma from VARIOTOPE®s vaccinated mice was incubated with 250 ng biotinylated huPCSK9 (BPS Bioscience) in PCSK9 buffer for 1 h at room temperature. Subsequently, 2U Furin (˜110 ng) (New England Biolabs) was added to the reaction solution and incubated over night at RT. The reaction product was analyzed by SDS-PAGE under reducing conditions.

[2] = Reduction of total cholesterol (TC) in treated animals, additional experiments (1 μg net peptide, five injections); type: in vivo, mice; conditions: 5 animals per group, 5 x 1 μg net peptide
Experimental: as §4
In order to evaluate the ability of selected VARIOTOPE® vaccine candidates to reduce TC and to compare the magnitude of TC reduction in VARIOTOPE® treated animals with the TC reduction in animals treated with a vaccine containing the original sequence, 5 to 10 mice per group were injected five times in 2 week intervals with vaccines containing 1 μg of net peptide. […]

## 1 (PEEDGTRFHRQASK) [compound 1]
Human PCSK9 protein
  titers against huPCSK9 (ODmax/2): 12074
[1]
  TC in % (FIG. 2A): 81%
  TC in % (FIG. 2B): 89%
  TC in % multiple AA exchanges (FIG. 2C): 81%

## 33 (PEEDGTRFMRQASK) [compound 33]
Human PCSK9 protein
  titers against huPCSK9 (ODmax/2): 10651

## PEWDGTRFHRQASK [SEQ ID NO: 26]
Human PCSK9 protein
  capacity to elicit a humoral immune response targeting PCSK9: do not have the capacity to elicit a humoral immune response targeting PCSK9

## 34 (PEEDGTRFHPQASK) [compound 34]
Human PCSK9 protein
  titers against huPCSK9 (ODmax/2): 20318

## 30 (PEEDGTRFTRQASK) [compound 30]
Human PCSK9 protein
  titers against huPCSK9 (ODmax/2): 9519

## 38 (PEEDGTRFHRQASS) [compound 38]
Human PCSK9 protein
  titers against huPCSK9 (ODmax/2): 31481

## PQEDGTRFHRQASK [SEQ ID NO: 10]
huPCSK9
  inhibition of furin cleavage of mature PCSK9 (aa153-692) / formation of truncated PCSK9 (aa219-692, ~50 kDa) by induced antibodies: inhibit the furin cleavage of the mature PCSK9

## 41 (PEEDGSRFHKQASK) [compound 41]
Human PCSK9 protein
  titers against huPCSK9 (ODmax/2): 37296
[1]
  TC in % multiple AA exchanges (FIG. 2C): 66%

## PEEDGTRFGRQASK [SEQ ID NO: 32]
Human PCSK9 protein
  capacity to elicit a humoral immune response targeting PCSK9: do not have the capacity to elicit a humoral immune response targeting PCSK9

## 44 (PEEDGSRFHRQATK) [compound 44]
Human PCSK9 protein
  titers against huPCSK9 (ODmax/2): 20684
[1]
  TC in % multiple AA exchanges (FIG. 2C): 74%

## PEEDGTGFHRQASK [SEQ ID NO: 28]
Human PCSK9 protein
  capacity to elicit a humoral immune response targeting PCSK9: do not have the capacity to elicit a humoral immune response targeting PCSK9

## 13 (PEEDGTRFHQQASK) [compound 13]
Human PCSK9 protein
  titers against huPCSK9 (ODmax/2): 18490

## 18 (PEEDGTRFHRKASK) [compound 18]
Human PCSK9 protein
  titers against huPCSK9 (ODmax/2): 30537
huPCSK9
  inhibition of furin cleavage of mature PCSK9 (aa153-692) / formation of truncated PCSK9 (aa219-692, ~50 kDa) by induced antibodies: inhibit the formation of truncated furin cleaved PCSK9
[1]
  TC in % (FIG. 2A): 81%

## 28 (PEEDGTGFHRQASK) [compound 28]
Human PCSK9 protein
  titers against huPCSK9 (ODmax/2): 0

## 32 (PEEDGTRFGRQASK) [compound 32]
Human PCSK9 protein
  titers against huPCSK9 (ODmax/2): 822

## 4 (PEEDGTRFARQASK) [compound 4]
Human PCSK9 protein
  titers against huPCSK9 (ODmax/2): 21494

## 7 (PEEDGTRFHRQAAK) [compound 7]
Human PCSK9 protein
  titers against huPCSK9 (ODmax/2): 15676

## 36 (PEEDGTRFHRTASK) [compound 36]
Human PCSK9 protein
  titers against huPCSK9 (ODmax/2): 29984
[1]
  TC in % (FIG. 2B): 72%

## 43 (PEEDGSRFHRRASK) [compound 43]
Human PCSK9 protein
  titers against huPCSK9 (ODmax/2): 29435

## 9 (TEEDGTRFHRQASK) [compound 9]
Human PCSK9 protein
  titers against huPCSK9 (ODmax/2): 23944

## 35 (PEEDGTRFHSQASK) [compound 35]
Human PCSK9 protein
  titers against huPCSK9 (ODmax/2): 29223

## 37 (PEEDGTRFHRQTSK) [compound 37]
Human PCSK9 protein
  titers against huPCSK9 (ODmax/2): 25826

## 5 (PEEDGTRFHAQASK) [compound 5]
Human PCSK9 protein
  titers against huPCSK9 (ODmax/2): 33442

## PEEDGTRFHRKASK [SEQ ID NO: 18]
huPCSK9
  inhibition of furin cleavage of mature PCSK9 (aa153-692) / formation of truncated PCSK9 (aa219-692, ~50 kDa) by induced antibodies: inhibit the furin cleavage of the mature PCSK9

## 40 (PEEDGTRFHRQASV) [compound 40]
Human PCSK9 protein
  titers against huPCSK9 (ODmax/2): 22678

## PEEDGTRFHRQASR [SEQ ID NO: 23]
huPCSK9
  inhibition of furin cleavage of mature PCSK9 (aa153-692) / formation of truncated PCSK9 (aa219-692, ~50 kDa) by induced antibodies: inhibit the furin cleavage of the mature PCSK9

## 26 (PEWDGTRFHRQASK) [compound 26]
Human PCSK9 protein
  titers against huPCSK9 (ODmax/2): 840

## 25 (KEEDGTRFHRQASK) [compound 25]
Human PCSK9 protein
  titers against huPCSK9 (ODmax/2): 19315

## 15 (PEEDGTRFHMQASK) [compound 15]
Human PCSK9 protein
  titers against huPCSK9 (ODmax/2): 15556

## 8 (PEEDGTRFHRQASA) [compound 8]
Human PCSK9 protein
  titers against huPCSK9 (ODmax/2): 23638

## 42 (PEEDGSRFHMQASK) [compound 42]
Human PCSK9 protein
  titers against huPCSK9 (ODmax/2): 18599

## 6 (PEEDGTRFHRAASK) [compound 6]
Human PCSK9 protein
  titers against huPCSK9 (ODmax/2): 22475

## 31 (PEEDGTRFVRQASK) [compound 31]
Human PCSK9 protein
  titers against huPCSK9 (ODmax/2): 11850

## 39 (PEEDGTRFHRQAST) [compound 39]
Human PCSK9 protein
  titers against huPCSK9 (ODmax/2): 13172

## 19 (PEEDGTRFHRQSSK) [compound 19]
Human PCSK9 protein
  titers against huPCSK9 (ODmax/2): 41310

## 20 (PEEDGTRFHRQATK) [compound 20]
Human PCSK9 protein
  titers against huPCSK9 (ODmax/2): 10813

## 11 (PKEDGTRFHRQASK) [compound 11]
Human PCSK9 protein
  titers against huPCSK9 (ODmax/2): 6610

## 22 (PEEDGTRFHRQALK) [compound 22]
Human PCSK9 protein
  titers against huPCSK9 (ODmax/2): 8694

## 23 (PEEDGTRFHRQASR) [compound 23]
Human PCSK9 protein
  titers against huPCSK9 (ODmax/2): 14722
[1]
  TC in % (FIG. 2A): 70%

## 16 (PEEDGTRFHREASK) [compound 16]
Human PCSK9 protein
  titers against huPCSK9 (ODmax/2): 18670

## 2 (AEEDGTRFHRQASK) [compound 2]
Human PCSK9 protein
  titers against huPCSK9 (ODmax/2): 36869

## 24 (PEEDGTRFHRQASL) [compound 24]
Human PCSK9 protein
  titers against huPCSK9 (ODmax/2): 19471

## 21 (PEEDGTRFHRQANK) [compound 21]
Human PCSK9 protein
  titers against huPCSK9 (ODmax/2): 15303

## PEEDGTRFHRRASK [SEQ ID NO: 17]
huPCSK9
  inhibition of furin cleavage of mature PCSK9 (aa153-692) / formation of truncated PCSK9 (aa219-692, ~50 kDa) by induced antibodies: inhibit the furin cleavage of the mature PCSK9

## 10 (PQEDGTRFHRQASK) [compound 10]
Human PCSK9 protein
  titers against huPCSK9 (ODmax/2): 29228
huPCSK9
  inhibition of furin cleavage of mature PCSK9 (aa153-692) / formation of truncated PCSK9 (aa219-692, ~50 kDa) by induced antibodies: inhibit the formation of truncated furin cleaved PCSK9
[1]
  TC in % (FIG. 2A): 78%

## 27 (PEEDKTRFHRQASK) [compound 27]
Human PCSK9 protein
  titers against huPCSK9 (ODmax/2): 7154

## 3 (PAEDGTRFHRQASK) [compound 3]
Human PCSK9 protein
  titers against huPCSK9 (ODmax/2): 2774

## 45 (PEEDGSRFHRRATK) [compound 45]
Human PCSK9 protein
  titers against huPCSK9 (ODmax/2): 11097

## PEEDGTRFHRQASL [SEQ ID NO: 24]
[2]; control group set as 100%, result in words
  TC values in comparison to the control group (FIG. 4): possesses the ability to reduce TC levels compared to the negative control
[2]; original sequence group set to 0%, positive = higher TC
  TC levels compared to the original peptide containing vaccine (FIG. 5): +9%

## 14 (PEEDGTRFHKQASK) [compound 14]
Human PCSK9 protein
  titers against huPCSK9 (ODmax/2): 17795

## 12 (PEEDGSRFHRQASK) [compound 12]
Human PCSK9 protein
  titers against huPCSK9 (ODmax/2): 12636

## 17 (PEEDGTRFHRRASK) [compound 17]
Human PCSK9 protein
  titers against huPCSK9 (ODmax/2): 28996
huPCSK9
  inhibition of furin cleavage of mature PCSK9 (aa153-692) / formation of truncated PCSK9 (aa219-692, ~50 kDa) by induced antibodies: inhibit the formation of truncated furin cleaved PCSK9
[1]
  TC in % (FIG. 2A): 81%

## 29 (PEEDGTRFSRQASK) [compound 29]
Human PCSK9 protein
  titers against huPCSK9 (ODmax/2): 33111
